Data reported in patent US10508120B2, “TYK2 inhibitors and uses thereof” (Nimbus Lakshmi, Inc., priority 2017, dated 2019).

What was measured:
[1] = molecular target: Tyk2 kinase domain (DH1) (Homo sapiens (Human), UniProt P29597); experiment: Tyk2 Radioactive Kinase Assay; assay type: biochemical; settings: 10 μM compound; 10 μM ATP; read-out: Tyk2 JH1% Inhibition @ 10 μM
Procedure, shortened: (§1)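 Single-point screen: 10 μM test compound, radioactive kinase read-out, percent inhibition reported for each kinase domain.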

[2] = molecular target: JAK2 kinase domain (JH1) (Homo sapiens (Human), UniProt O60674); experiment: JAK2 Radioactive Kinase Assay; assay type: biochemical; settings: 10 μM compound; 10 μM ATP; read-out: JAK2 JH1% Inhibition @ 10 μM
Chain of JAK2 kinase domain (JH1) (O60674 849-1124): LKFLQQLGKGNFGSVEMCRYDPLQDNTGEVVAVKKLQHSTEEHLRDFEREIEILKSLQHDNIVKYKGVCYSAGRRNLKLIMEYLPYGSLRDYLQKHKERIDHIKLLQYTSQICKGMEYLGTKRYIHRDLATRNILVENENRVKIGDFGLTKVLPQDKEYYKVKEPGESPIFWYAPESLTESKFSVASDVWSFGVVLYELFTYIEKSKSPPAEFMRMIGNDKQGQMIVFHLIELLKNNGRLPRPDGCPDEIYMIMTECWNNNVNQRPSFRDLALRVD
Procedure, shortened: as §1

[3] = molecular target: human TYK2 (JH2domain-pseudokinase) (Homo sapiens (Human), UniProt P29597); experiment: TYK2 JH2 Domain Binding Assay (KINOMEscan)
Chain of human TYK2 (JH2domain-pseudokinase) (P29597 556-888): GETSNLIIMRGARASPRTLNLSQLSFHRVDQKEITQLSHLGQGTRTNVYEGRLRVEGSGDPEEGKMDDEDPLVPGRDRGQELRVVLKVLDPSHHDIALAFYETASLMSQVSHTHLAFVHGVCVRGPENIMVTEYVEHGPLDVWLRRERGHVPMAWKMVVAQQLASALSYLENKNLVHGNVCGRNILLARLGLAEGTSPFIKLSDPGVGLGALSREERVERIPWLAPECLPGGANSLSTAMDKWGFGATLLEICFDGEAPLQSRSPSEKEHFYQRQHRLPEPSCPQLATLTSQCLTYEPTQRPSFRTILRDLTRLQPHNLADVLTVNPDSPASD
Procedure, shortened: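 Pseudokinase domain binding was measured by qPCR of tagged, bead-retained kinase after 1 h room-temperature competition, with 0.9% DMSO and compound up to 30,000 nM in 3-fold steps. Hill-equation Kd, duplicate.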

Chain of Tyk2 kinase domain (DH1) (P29597 897-1176): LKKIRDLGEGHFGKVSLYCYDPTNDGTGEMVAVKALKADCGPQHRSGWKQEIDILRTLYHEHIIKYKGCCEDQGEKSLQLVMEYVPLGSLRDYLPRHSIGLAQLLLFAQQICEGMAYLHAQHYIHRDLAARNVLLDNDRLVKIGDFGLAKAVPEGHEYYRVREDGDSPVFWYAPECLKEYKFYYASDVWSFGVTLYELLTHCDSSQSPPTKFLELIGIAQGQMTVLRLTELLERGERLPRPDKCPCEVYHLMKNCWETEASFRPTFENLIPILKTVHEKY

Structure (SMILES)	inhibition at 10 µM [1] [%]	inhibition at 10 µM [2] [%]	Kd [3] [pM]
CNc1cc(Nc2cccn(-c3cccc(F)c3)c2=O)nc2c(C(=O)NC[C@H](C)CO)cnn12 [I-1034]	< 50	< 50	< 200
CNc1cc(Nc2cccn(-c3ccccc3F)c2=O)nc2c(C(=O)N[C@@H]3CC[C@@H]3O)cnn12 [I-1036]	< 50	< 50	200 to 1000
CNc1cc(Nc2cccn([C@@H]3CCCC[C@@H]3OC)c2=O)nc2c(C(=O)N[C@H]3CC[C@@H]3OC)cnn12 [I-1037]	< 50	< 50	200 to 1000
CNc1cc(Nc2cccn(-c3ccccc3F)c2=O)nc2c(C(=O)N[C@@H]3CC[C@H]3O)cnn12 [I-1039]	< 50	< 50	< 200
CNc1cc(Nc2cccn([C@H]3CCCN(CCC#N)C3)c2=O)nc2c(C(=O)N[C@@H]3C[C@@H]3F)cnn12 [I-1040]	< 50	< 50	200 to 1000
CNc1cc(Nc2cccn([C@@H]3CCCN(CCC#N)C3)c2=O)nc2c(C(=O)N[C@@H]3C[C@@H]3F)cnn12 [I-1041]	< 50	< 50	200 to 1000
CNc1cc(Nc2cccn([C@@H]3CCC[C@@H](OC)C3)c2=O)nc2c(C(=O)N[C@@H]3C[C@@H]3F)cnn12 [I-1043]	< 50	< 50	200 to 1000
CNc1cc(Nc2cccn([C@H]3CCCC[C@H]3OC)c2=O)nc2c(C(=O)NC3CC3)cnn12 [I-1044]	< 50	< 50	200 to 1000
CNc1cc(Nc2cccn([C@H]3CCCC[C@H]3OC)c2=O)nc2c(C(=O)N[C@@H]3C[C@@H]3F)cnn12 [I-1045]	< 50	< 50	200 to 1000
CNc1cc(Nc2cccn([C@H]3CCCC[C@H]3OC)c2=O)nc2c(C(=O)NCC(C)(C)CO)cnn12 [I-1046]	< 50	< 50	< 200
CNc1cc(Nc2cccn([C@H]3CCCC[C@H]3OC)c2=O)nc2c(C(=O)NCC3(CO)CC3)cnn12 [I-1047]	< 50	< 50	200 to 1000
CNc1cc(Nc2cccn([C@@H]3CCC[C@H](OC)C3)c2=O)nc2c(C(=O)N[C@@H]3CC[C@H]3O)cnn12 [I-1054]	< 50	< 50	< 200
CNc1cc(Nc2cccn([C@@H]3CCC[C@H](OC)C3)c2=O)nc2c(C(=O)N[C@H]3CC[C@@H]3O)cnn12 [I-1055]	< 50	< 50	200 to 1000
CNc1cc(Nc2cccn([C@H]3CCCC[C@H]3O)c2=O)nc2c(C(=O)N[C@H]3CC[C@@H]3OC)cnn12 [I-1058]	< 50	< 50	200 to 1000
CNc1cc(Nc2cccn([C@H]3C[C@@H]3F)c2=O)nc2c(C(=O)NCC(C)(C)CO)cnn12 [I-1060]	< 50	< 50	< 200
CNc1cc(Nc2cccn([C@@H]3CCC[C@@H](O)C3)c2=O)nc2c(C(=O)N[C@H]3CC[C@@H]3OC)cnn12 [I-1064]	< 50	< 50	< 200
CNc1cc(-c2cn(C3CCOCC3)c3ncccc23)nc2c(C(=O)N[C@H]3CC[C@@H]3OC)cnn12 [I-1065]	< 50	< 50	< 200
CNc1cc(Nc2cc(Cl)cn(C3CCOCC3)c2=O)nc2c(C(=O)N[C@H]3CC[C@H]3O)cnn12 [I-1068]	< 50	< 50	< 200
CNc1cc(Nc2cc(Cl)cn(C3CCOCC3)c2=O)nc2c(C(=O)N[C@@H]3CC[C@@H]3O)cnn12 [I-1069]	< 50	< 50	200 to 1000
CNc1cc(Nc2cccn(-c3ncc(C)s3)c2=O)nc2c(C(=O)N[C@H]3CC[C@@H]3O)cnn12 [I-1071]	< 50	< 50	1000 to 10000
CNc1cc(Nc2cccn(-c3ncc(C)s3)c2=O)nc2c(C(=O)N[C@H]3CC[C@H]3O)cnn12 [I-1072]	< 50	< 50	< 200
CNc1cc(Nc2cccn(-c3ccccc3F)c2=O)nc2c(C(=O)NC[C@@H](C)CO)cnn12 [I-1076]	< 50	< 50	< 200
